Key:
[1] = design: method as in ref 25 (Lai et al.); conditions: photo-stability; ref 25 (Lai et al.); cited from earlier work
[2] = design: method as in ref 11 (Al Omari et al. 2007); conditions: UV exposure for 15 min; ref 11 (Al Omari et al. 2007); cited from earlier work
[3] = oral, rats and mice, 12 months; cited from earlier work
[4] = type: in vivo; conditions: rats, 25 mg/kg topical, 24 h monitoring
Description: In vivo pharmacokinetic study of MTK-loaded nanocrystal preparation was carried out in the healthy rats, after approval from Institutional Animal Care and Use Committee (IACUC) of Dankook University (Cheonan, Korea) (DKU-19-032, 8th October 2019). Six-week-old male Sprague-Dawley rats (SD rats, 250 ± 20 g) obtained from Samtako (Kyungki-do, Korea) were acclimated for at least 3 days, with free access to tap water and standardized chow. The rats were then divided into two groups (n = 6 per each group) and the hair on the dorsal region was removed by hair clippers without damaging the skin, prior to topical application. […] To avoid the drying of the nanocrystal or conventional hydrogels, a thin film made from polyurethane and acrylamide (Tegaderm®, 10 × 12 cm) was attached onto the application site. At predetermined time intervals (0, 0.5, 1, 2, 3, 4, 5, 8, 12, and 24 h), the blood samples (about 0.2 mL) were withdrawn from the submandibular vein using 28 G heparinized syringe. At 6 h post-administration, rats were allowed to freely access to water and standardized chow. During the experimental period (24 h), individual rats were monitored for their changes in skin and fur, behavior pattern, morbidity, and mortality. […] The drug concentration in the plasma was determined by the high-performance liquid chromatography and tandem mass spectrometry (LC–MS/MS) method described below.

[5] = In vivo pharmacokinetics after topical application to dorsal skin; conditions: male, Sprague-Dawley, rat, plasma, both hydrogel groups, rats, topical 25 mg/kg
Description: In vivo pharmacokinetic study of MTK-loaded nanocrystal preparation was carried out in the healthy rats, after approval from Institutional Animal Care and Use Committee (IACUC) of Dankook University (Cheonan, Korea) (DKU-19-032, 8th October 2019). Six-week-old male Sprague-Dawley rats (SD rats, 250 ± 20 g) obtained from Samtako (Kyungki-do, Korea) were acclimated for at least 3 days, with free access to tap water and standardized chow. The rats were then divided into two groups (n = 6 per each group) and the hair on the dorsal region was removed by hair clippers without damaging the skin, prior to topical application. […] During the experimental period (24 h), individual rats were monitored for their changes in skin and fur, behavior pattern, morbidity, and mortality. […] The drug concentration in the plasma was determined by the high-performance liquid chromatography and tandem mass spectrometry (LC–MS/MS) method described below.
Briefly, 20 μL of thawed rat plasma was mixed with 500 μL of the extraction solution (25% (v/v) of dichloromethane and 75% (v/v) of ethyl acetate), including zafirlukast (the internal standard, IS, 60 ng/mL) and vortexed for 60 s. […] Then, the residue was reconstituted with 100 μL of methanol and the final solution was analyzed through the LC-MS/MS system, composed of Nexera X2 UHPLC and LCMS-8050 mass spectrometer (Shimadzu, Tokyo, Japan). […]

SMILES	half-life with nanosuspension as compared to drug methanolic solution [1] [fold]	drug content in the methanolic solution [2] [%]	NOAEL [3] [mg/kg]	adverse effects following single topical administration [4]	concentration at 5 h ([5]; 5 h post-dosing) [ng/mL]	concentration at 12 h ([5]; 12 h post-dosing, read-out: drug concentration in the plasma) [ng/mL]
CC1=C(/C=C/C(C)=C/C=C/C(C)=C/C(=O)O)C(C)(C)CCC1 [tretinoin]	7.5	–	–	–	–	–
CC(C)(O)c1ccccc1CC[C@@H](SCC1(CC(=O)O)CC1)c1cccc(/C=C/c2ccc3ccc(Cl)cc3n2)c1 [MTK, Montelukast]	–	70	50	no marked adverse effects	2 to 6	< 1

From publication PMC7022715 (Pharmaceutics, 2019)
